Experimental data reported in US20240158446A1, “CYCLIC COMPOUND HAVING SELECTIVE INHIBITORY ACTION ON KRAS OVER HRAS AND NRAS” (CHUGAI SEIYAKU KABUSHIKI KAISHA, priority 2021, published 2024).

Legend:
[1] = biological target: GDP-bound HRAS wild-type protein (Homo sapiens, UniProt P01112); experiment: Binding to HRAS by surface plasmon resonance (SPR), Single Cycle Kinetics; settings: SPR, GDP-bound HRAS wild-type protein vs GDP-bound KRAS wild-type protein
[2] = biological target: GDP-bound KRAS wild-type protein (Homo sapiens, UniProt P01116); experiment: Binding to KRAS by surface plasmon resonance (SPR), Single Cycle Kinetics; settings: SPR, Single Cycle Kinetics, GDP-bound KRAS wild-type protein; read-out: KRAS KD
GDP-bound KRAS wild-type protein, sequence (P01116 whole entry): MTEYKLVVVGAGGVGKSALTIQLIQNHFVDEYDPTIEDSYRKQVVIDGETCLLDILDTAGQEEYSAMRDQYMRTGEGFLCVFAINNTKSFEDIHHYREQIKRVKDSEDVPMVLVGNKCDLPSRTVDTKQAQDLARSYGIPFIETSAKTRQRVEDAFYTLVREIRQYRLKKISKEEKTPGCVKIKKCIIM

[3] = biological target: GDP-bound NRAS wild-type protein (Homo sapiens, UniProt P01111); experiment: Binding to NRAS by surface plasmon resonance (SPR), Single Cycle Kinetics; settings: SPR, GDP-bound NRAS wild-type protein vs GDP-bound KRAS wild-type protein
GDP-bound NRAS wild-type protein, sequence (P01111 whole entry): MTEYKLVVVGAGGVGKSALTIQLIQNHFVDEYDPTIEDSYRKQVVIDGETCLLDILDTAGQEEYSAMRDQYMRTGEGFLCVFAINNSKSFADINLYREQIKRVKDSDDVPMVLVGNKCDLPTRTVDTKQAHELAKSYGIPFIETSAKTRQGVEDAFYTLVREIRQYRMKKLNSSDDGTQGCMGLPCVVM

GDP-bound HRAS wild-type protein, sequence (P01112 whole entry): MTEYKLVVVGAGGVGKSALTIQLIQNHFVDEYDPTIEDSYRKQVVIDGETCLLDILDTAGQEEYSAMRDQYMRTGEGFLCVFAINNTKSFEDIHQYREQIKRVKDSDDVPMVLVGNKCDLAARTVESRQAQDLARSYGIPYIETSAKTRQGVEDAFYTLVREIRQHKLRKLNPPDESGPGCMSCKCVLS

| Structure (SMILES) | HRAS/KRAS (ratio of KD value for HRAS to KD value for KRAS) [1] | Kd [2] | NRAS/KRAS (ratio of KD value for NRAS to KD value for KRAS) [3] |
| --- | --- | --- | --- |
| CCO[C@@H]1C[C@H]2C(=O)NC3(CCCC3)C(=O)N(C)[C@@H](C3CCCC3)C(=O)N(C)[C@H](C(=O)N3CCOCC3)CC(=O)N(C)[C@@H](CC(C)C)C(=O)N[C@@H]([C@@H](C)CC)C(=O)N(C)CC(=O)N(C)[C@H]3C[C@@H](C)CCN(C3=O)[C@@H](Cc3ccc(C(F)(F)F)cc3)C(=O)N(C)CC(=O)N[C@@H](CCc3cc(F)c(C(F)(F)F)c(F)c3)C(=O)N2C1 [PP1024] | B (a compound having 3 or more and less than 10 is denoted as B) | 0.088 nM | B (a compound having 3 or more and less than 10 is denoted as B) |
| CCO[C@@H]1C[C@H]2C(=O)NC3(CCC3)C(=O)N(C)[C@@H](C3CCCC3)C(=O)N(C)[C@H](C(=O)N3CCOCC3)CC(=O)N(C)[C@@H](CC(C)C)C(=O)N[C@@H]([C@@H](C)CC)C(=O)N(C)CC(=O)N(C)[C@H]3C[C@@H](C)CCN(C3=O)[C@@H](Cc3ccc(C(F)(F)F)cc3)C(=O)N(C)CC(=O)N[C@@H](CCc3cc(F)c(C(F)(F)F)c(F)c3)C(=O)N2C1 [PP1025] | B (a compound having 3 or more and less than 10 is denoted as B) | 0.056 nM | C (A compound having a KD ratio of 0.1 or more and less than 3 is denoted as C) |
| CCO[C@@H]1C[C@H]2C(=O)NC3(CCC3)C(=O)N(C)[C@@H](C3CCCC3)C(=O)N(C)[C@H](C(=O)N3CCOCC3)CC(=O)N(C)[C@@H](CC)C(=O)N[C@@H]([C@@H](C)CC)C(=O)N(C)CC(=O)N(C)[C@H]3C[C@@H](C)CCN(C3=O)[C@@H](Cc3ccc(C(F)(F)F)cc3)C(=O)N(C)CC(=O)N[C@@H](CCc3cc(F)c(C(F)(F)F)c(F)c3)C(=O)N2C1 [PP1027] | B (a compound having 3 or more and less than 10 is denoted as B) | 0.056 nM | C (A compound having a KD ratio of 0.1 or more and less than 3 is denoted as C) |
| CCO[C@@H]1C[C@H]2C(=O)NC3(CCC3)C(=O)N(C)[C@@H](C3CCCC3)C(=O)N(C)[C@H](C(=O)N3CCOCC3)CC(=O)N(C)[C@@H](CC)C(=O)N[C@@H]([C@@H](C)CC)C(=O)N3CC[C@H]3C(=O)N(C)[C@H]3C[C@@H](C)CCN(C3=O)[C@@H](Cc3ccc(C(F)(F)F)cc3)C(=O)N(C)CC(=O)N[C@@H](CCc3cc(F)c(C(F)(F)F)c(F)c3)C(=O)N2C1 [PP1028] | B (a compound having 3 or more and less than 10 is denoted as B) | 0.099 nM | B (a compound having 3 or more and less than 10 is denoted as B) |
| CCO[C@@H]1C[C@H]2C(=O)NC3(CCCC3)C(=O)N(C)[C@@H](C3CCCC3)C(=O)N(C)[C@H](C(=O)N3CCOCC3)CC(=O)N(C)[C@@H](CC)C(=O)N[C@@H]([C@@H](C)CC)C(=O)N(C)CC(=O)N(C)[C@H]3C[C@@H](C)CCN(C3=O)[C@@H](Cc3ccc(C(F)(F)F)cc3)C(=O)N(C)CC(=O)N[C@@H](CCc3cc(F)c(C(F)(F)F)c(F)c3)C(=O)N2C1 [PP1029] | B (a compound having 3 or more and less than 10 is denoted as B) | 0.078 nM | C (A compound having a KD ratio of 0.1 or more and less than 3 is denoted as C) |
| CCO[C@@H]1C[C@H]2C(=O)NC3(CCCC3)C(=O)N(C)[C@@H](C3CCCC3)C(=O)N(C)[C@H](C(=O)N(C)C)CC(=O)N(C)[C@@H](CC(C)C)C(=O)N[C@@H]([C@@H](C)CC)C(=O)N(C)CC(=O)N(C)[C@H]3CC(C)=CCN(C3=O)[C@@H](Cc3ccc(C(F)(F)F)cc3)C(=O)N(C)CC(=O)N[C@@H](CCc3cc(F)c(C(F)(F)F)c(F)c3)C(=O)N2C1 [PP1031] | C (A compound having a KD ratio of 0.1 or more and less than 3 is denoted as C) | 0.67 nM | C (A compound having a KD ratio of 0.1 or more and less than 3 is denoted as C) |
| CCO[C@@H]1C[C@H]2C(=O)NC3(CCC3)C(=O)N(C)[C@@H](C3CCCC3)C(=O)N(C)[C@H](C(=O)N(C)C)CC(=O)N(C)[C@@H](CC(C)C)C(=O)N[C@@H]([C@@H](C)CC)C(=O)N3CC[C@H]3C(=O)N(C)[C@H]3CC(C)=CCN(C3=O)[C@@H](Cc3ccc(C(F)(F)F)cc3)C(=O)N(C)CC(=O)N[C@@H](CCc3cc(F)c(C(F)(F)F)c(F)c3)C(=O)N2C1 [PP1033] | C (A compound having a KD ratio of 0.1 or more and less than 3 is denoted as C) | 0.43 nM | C (A compound having a KD ratio of 0.1 or more and less than 3 is denoted as C) |
| CCO[C@@H]1C[C@H]2C(=O)NC3(CCC3)C(=O)N(C)[C@@H](C3CCCC3)C(=O)N(C)[C@H](C(=O)N(C)C)CC(=O)N(C)[C@@H](CC)C(=O)N[C@@H]([C@@H](C)CC)C(=O)N(C)CC(=O)N(C)[C@H]3CC(C)=CCN(C3=O)[C@@H](Cc3ccc(C(F)(F)F)cc3)C(=O)N(C)CC(=O)N[C@@H](CCc3cc(F)c(C(F)(F)F)c(F)c3)C(=O)N2C1 [PP1034] | C (A compound having a KD ratio of 0.1 or more and less than 3 is denoted as C) | 0.43 nM | C (A compound having a KD ratio of 0.1 or more and less than 3 is denoted as C) |
| CCO[C@@H]1C[C@H]2C(=O)NC3(CCC3)C(=O)N(C)[C@@H](C3CCCC3)C(=O)N(C)[C@H](C(=O)N(C)C)CC(=O)N(C)[C@@H](CC)C(=O)N[C@@H]([C@@H](C)CC)C(=O)N3CC[C@H]3C(=O)N(C)[C@H]3CC(C)=CCN(C3=O)[C@@H](Cc3ccc(C(F)(F)F)cc3)C(=O)N(C)CC(=O)N[C@@H](CCc3cc(F)c(C(F)(F)F)c(F)c3)C(=O)N2C1 [PP1035] | C (A compound having a KD ratio of 0.1 or more and less than 3 is denoted as C) | 0.52 nM | C (A compound having a KD ratio of 0.1 or more and less than 3 is denoted as C) |
| CCO[C@@H]1C[C@H]2C(=O)NC3(CCCC3)C(=O)N(C)[C@@H](C3CCCC3)C(=O)N(C)[C@H](C(=O)N(C)C)CC(=O)N(C)[C@@H](CC)C(=O)N[C@@H]([C@@H](C)CC)C(=O)N(C)CC(=O)N(C)[C@H]3CC(C)=CCN(C3=O)[C@@H](Cc3ccc(C(F)(F)F)cc3)C(=O)N(C)CC(=O)N[C@@H](CCc3cc(F)c(C(F)(F)F)c(F)c3)C(=O)N2C1 [PP1036] | C (A compound having a KD ratio of 0.1 or more and less than 3 is denoted as C) | 0.75 nM | C (A compound having a KD ratio of 0.1 or more and less than 3 is denoted as C) |
| CCO[C@@H]1C[C@H]2C(=O)NC3(CCCC3)C(=O)N(C)[C@@H](C3CCCC3)C(=O)N(C)[C@H](C(=O)N3CCOCC3)CC(=O)N(C)[C@@H](CC(C)C)C(=O)N[C@@H]([C@@H](C)CC)C(=O)N(C)CC(=O)N(C)[C@H]3CC(C)=CCN(C3=O)[C@@H](Cc3ccc(C(F)(F)F)cc3)C(=O)N(C)CC(=O)N[C@@H](CCc3cc(F)c(C(F)(F)F)c(F)c3)C(=O)N2C1 [PP1038] | C (A compound having a KD ratio of 0.1 or more and less than 3 is denoted as C) | 3 nM | C (A compound having a KD ratio of 0.1 or more and less than 3 is denoted as C) |
| CCO[C@@H]1C[C@H]2C(=O)NC3(CCC3)C(=O)N(C)[C@@H](C3CCCC3)C(=O)N(C)[C@H](C(=O)N3CCOCC3)CC(=O)N(C)[C@@H](CC(C)C)C(=O)N[C@@H]([C@@H](C)CC)C(=O)N3CC[C@H]3C(=O)N(C)[C@H]3CC(C)=CCN(C3=O)[C@@H](Cc3ccc(C(F)(F)F)cc3)C(=O)N(C)CC(=O)N[C@@H](CCc3cc(F)c(C(F)(F)F)c(F)c3)C(=O)N2C1 [PP1040] | C (A compound having a KD ratio of 0.1 or more and less than 3 is denoted as C) | 1.2 nM | C (A compound having a KD ratio of 0.1 or more and less than 3 is denoted as C) |
| CCO[C@@H]1C[C@H]2C(=O)NC3(CCC3)C(=O)N(C)[C@@H](C3CCCC3)C(=O)N(C)[C@H](C(=O)N3CCOCC3)CC(=O)N(C)[C@@H](CC)C(=O)N[C@@H]([C@@H](C)CC)C(=O)N(C)CC(=O)N(C)[C@H]3CC(C)=CCN(C3=O)[C@@H](Cc3ccc(C(F)(F)F)cc3)C(=O)N(C)CC(=O)N[C@@H](CCc3cc(F)c(C(F)(F)F)c(F)c3)C(=O)N2C1 [PP1041] | C (A compound having a KD ratio of 0.1 or more and less than 3 is denoted as C) | 0.57 nM | C (A compound having a KD ratio of 0.1 or more and less than 3 is denoted as C) |
| CCO[C@@H]1C[C@H]2C(=O)NC3(CCC3)C(=O)N(C)[C@@H](C3CCCC3)C(=O)N(C)[C@H](C(=O)N3CCOCC3)CC(=O)N(C)[C@@H](CC)C(=O)N[C@@H]([C@@H](C)CC)C(=O)N3CC[C@H]3C(=O)N(C)[C@H]3CC(C)=CCN(C3=O)[C@@H](Cc3ccc(C(F)(F)F)cc3)C(=O)N(C)CC(=O)N[C@@H](CCc3cc(F)c(C(F)(F)F)c(F)c3)C(=O)N2C1 [PP1042] | C (A compound having a KD ratio of 0.1 or more and less than 3 is denoted as C) | 1.3 nM | C (A compound having a KD ratio of 0.1 or more and less than 3 is denoted as C) |
| CCO[C@@H]1C[C@H]2C(=O)NC3(CCCC3)C(=O)N(C)[C@@H](C3CCCC3)C(=O)N(C)[C@H](C(=O)N3CCOCC3)CC(=O)N(C)[C@@H](CC)C(=O)N[C@@H]([C@@H](C)CC)C(=O)N(C)CC(=O)N(C)[C@H]3CC(C)=CCN(C3=O)[C@@H](Cc3ccc(C(F)(F)F)cc3)C(=O)N(C)CC(=O)N[C@@H](CCc3cc(F)c(C(F)(F)F)c(F)c3)C(=O)N2C1 [PP1043] | C (A compound having a KD ratio of 0.1 or more and less than 3 is denoted as C) | 2.4 nM | C (A compound having a KD ratio of 0.1 or more and less than 3 is denoted as C) |
